Assay: xn = mol fraction of the nth substance listed
Conditions: 101 kPa, Liquid, Vibrating tube method

CCCC[N+]1(C)CCCC1.FC(F)(F)C(F)(F)[P-](F)(F)(F)(C(F)(F)C(F)(F)F)C(F)(F)C(F)(F)F + CNC=O
mass density [kg/m3]
Conditions	293.15 K	298.15 K	303.15 K	308.15 K	313.15 K	318.15 K	323.15 K
x1 = 0.017	1058.37	1053.77	1049.14	1044.53	1039.79	1035.11	1030.3
x1 = 0.038	1115.08	1110.31	1105.47	1100.72	1095.79	1091	1085.98
x1 = 0.064	1172.33	1167.39	1162.43	1157.5	1152.45	1147.53	1142.27
x1 = 0.1395	1288.62	1283.34	1278.09	1272.85	1267.61	1262.38	1256.78
x1 = 0.1994	1349.8	1344.44	1339.03	1333.6	1328.11	1322.58	1317.13
x1 = 0.2991	1419.35	1413.93	1408.4	1402.86	1397.22	1391.56	1385.88
x1 = 0.4005	1466.49	1460.95	1455.39	1449.79	1444.2	1438.48	1432.75
x1 = 0.5044	1501.13	1495.58	1490.07	1484.49	1478.87	1473.25	1467.48
x1 = 0.5964	1524.64	1519.12	1513.49	1507.92	1502.28	1496.79	1491.13
x1 = 0.6471	1535.54	1530.04	1524.39	1518.85	1513.18	1507.72	1502.01
x1 = 0.7548	1555.34	1549.77	1544.13	1538.58	1532.92	1527.43	1521.8
x1 = 0.8413	1568.65	1563.05	1557.45	1551.88	1546.25	1540.73	1535.12
x1 = 0.9029	1577.04	1571.47	1565.91	1560.34	1554.73	1549.18	1543.58

CCCC[N+]1(C)CCCC1.FC(F)(F)C(F)(F)[P-](F)(F)(F)(C(F)(F)C(F)(F)F)C(F)(F)C(F)(F)F + CC(=O)N(C)C
mass density [kg/m3]
Conditions	293.15 K	298.15 K	303.15 K	308.15 K	313.15 K	318.15 K	323.15 K
x1 = 0.0182	983.51	978.8	974.05	969.23	964.38	959.48	954.43
x1 = 0.0658	1076.12	1071.23	1066.29	1061.3	1056.27	1051.2	1046.01
x1 = 0.099	1128.83	1123.84	1118.81	1113.75	1108.63	1103.46	1098.22
x1 = 0.1925	1243.41	1238.24	1233.05	1227.86	1222.59	1217.27	1211.86
x1 = 0.2995	1334.81	1329.56	1324.29	1318.96	1313.61	1308.22	1302.76
x1 = 0.4032	1399.72	1394.36	1389.05	1383.7	1378.3	1372.86	1367.34
x1 = 0.5012	1446.97	1441.77	1436.59	1431.01	1425.38	1420.2	1414.53
x1 = 0.6048	1487.12	1482	1476.86	1470.97	1465.48	1460.22	1454.65
x1 = 0.7078	1520.04	1514.92	1509.86	1504.04	1498.52	1492.71	1487.58
x1 = 0.806	1546.68	1541.65	1536.23	1530.12	1524.91	1519.13	1513.85
x1 = 0.8469	1556.58	1551.46	1546.01	1539.99	1534.65	1528.99	1523.64
x1 = 0.9176	1572.41	1567.01	1561.51	1555.89	1550.24	1544.79	1539.24
